We go through two compounds from patent US20070191461A1, “USE OF BENZO-HETEROARYL SULFAMIDE DERIVATIVES FOR THE TREATMENT OF MIGRAINE” (priority 2006, published 2007).

Structures are written as SMILES. Where “and” joins values, the source holds several entries; their conditions need not be identical. Identical values can stand only once.

The nature of data set [1]: Body weight and systemic physiology monitoring during CSD testing. The class given is in vivo, Sprague-Dawley rats. The conditions noted are these: rats, 100 mg/kg/day p.o. for 35 days. The procedure: (§1) Adult male Sprague-Dawley rats (250-600 g) were divided into two treatment groups: vehicle (0.5% methylcellulose; n=13) and Compound #1 (100 mg/kg/day, p.o.; n=7). Results were compared to historical positive controls with valproic acid at 200 mg/kg/day, i.p.
Vehicle or Compound #1 was administered orally once a day for 35 days. On the last day of treatment, rats continued to receive food and water ad libitum, and were given their daily oral dose of vehicle or Compound #1 approximately 1.5 h prior to CSD testing. Rats were anesthetized using isoflurane and intubated via a tracheotomy for mechanical ventilation. Body temperature, blood pressure and heart rate were monitored throughout the procedure to ensure homeostasis. Rats were placed in a stereotaxic frame and three burr holes were drilled under saline cooling over the right hemisphere at the following coordinates (mm from bregma): (1) posterior 4.5, lateral 2.0 (occipital cortex): KCL application; (2) posterior 0.5, lateral 2.0 (parietal cortex): recording site 1; (3) anterior 2, lateral 2 (frontal cortex): recording site 2. Dura overlying the occipital cortex was gently removed. The steady (DC) potential and electrocorticogram (EcoG) were recorded with glass micropipettes filled with 200 mM NaCl, […] below the dural surface. An Ag/AgCl reference electrode was placed subcutaneously in the neck. Following surgical preparation, the cortex was allowed to recover for 30 minutes under saline irrigation. Cortical spreading depressions were initiated by placing a cotton ball soaked with 1 M KCl on the pial surface. The number of KCL-induced CSDs was counted for 2 hours. Propagation speed was calculated from the distance (mm) between the recording electrodes 1 and 2, divided by the latency (min) between the CSDs recorded at these sites.

The test system of data set [2] is KCl-induced cortical spreading depression. The experiment in a line: Cortical spreading depression (CSD) assay as model of migraine. The class given is in vivo, Sprague-Dawley rats. The conditions noted are these: rats, 100 mg/kg/day p.o. for 35 days. As for the experimental part: Cortical spreading depression (CSD) has been implicated in migraine and as a headache trigger, and can be evoked in experimental animals by electrical or chemical stimulation (Kunkler & Kraig, 2003; Lauritzen et al., 1982; Moskowitz, 1984).
as §1
Vehicle or Compound #1 was administered orally once a day for 35 days. On the last day of treatment, rats continued to receive food and water ad libitum, and were given their daily oral dose of vehicle or Compound #1 approximately 1.5 h prior to CSD testing. Rats were anesthetized using isoflurane and intubated via a tracheotomy for mechanical ventilation. Body temperature, blood pressure and heart rate were monitored throughout the procedure to ensure homeostasis. […] The steady (DC) potential and electrocorticogram (EcoG) were recorded with glass micropipettes filled with 200 mM NaCl, […] below the dural surface. […] The number of KCL-induced CSDs was counted for 2 hours. Propagation speed was calculated from the distance (mm) between the recording electrodes 1 and 2, divided by the latency (min) between the CSDs recorded at these sites. […]

Data set [3] has the same test system. The conditions noted are these: historical positive control, 200 mg/kg/day i.p. for 4 weeks; saline vehicle 18; p<0.05; cited from earlier work.

As to `NS(=O)(=O)NCc1csc2ccccc12` [Compound #1, N-(benzo[b]thien-3-ylmethyl)-sulfamide], the “Physiological monitoring, including arterial pH, pCO2, pO2 and blood pressure, versus vehicle” value in data set [1] is listed as “did not differ between the groups”. Besides, in data set [1] (during CSD testing), the “Systemic Physiology: BP (blood pressure)” value worked out at 102 ± 6, the “Systemic Physiology: pCO2” value is on record as 42 ± 6, the “Systemic Physiology: pH (arterial)” value was 7.4 ± 0.05 and the “Systemic Physiology: pO2” value is on record as 154 ± 23. Besides, in data set [2] (KCl-induced CSD, vehicle 3.2 ± 1, p=0.06), the “Propagation Speed” value is 2.8 ± 0.3 mm/min. For the same compound, in data set [2] (last dose approx. 1.5 h before testing, topical 1 M KCl, counted for 2 hours, vehicle 16 ± 3, p=0.12), the “CSDs (2 h) ≧5 mV (number of KCl-induced cortical spreading depressions)” value was 12 and 12 ± 5.
On to `CCCC(CCC)C(=O)O` [valproate, valproic acid], for which the “Number of cortical spreading depressions” value in data set [3] is given as 12.
